Results from publication PMC10531095, “Photonics of Some Monomethine Cyanine Dyes in Solutions and in Complexes with Biomolecules” (International Journal of Molecular Sciences, 2023).

Experiments:
Format in all cases: binding, chick
dsDNA [1] = assay: Thermal dissociation (melting) of dsDNA in the presence of MCD; settings: cdsDNA~6 × 10^−5 mol L^−1, cMCD~6 × 10^−6 mol L^−1; for Tm(dsDNA), melting point of dsDNA in the presence of MCD: without cyanines 80 °C
Excerpt: It is known that noncovalent ligand–dsDNA interactions upon the intercalative type of binding lead to additional stabilization of the biopolymer, which is reflected in an increase in the temperature range of thermal dissociation of the DNA double helix. From the data on the thermal dissociation of dsDNA, it is easy to obtain the melting point Tm(dsDNA) (at which 50% dsDNA is denatured). Note that Tm(dsDNA) depends on its GC composition, molecular length, and degree of strand complementarity; long duplexes with fewer base mismatches will have higher Tm(dsDNA) than short duplexes with more mismatches.
Melting of the DNA double helix was measured spectrophotometrically at t = […], the normalized temperature dependences of the absorbances of the samples at λabs = 260 nm are shown in Figure 8.
(§1) Single-stranded form of DNA (single-stranded DNA; ssDNA) was obtained according to the method described in [74]. The concentrations of DNA and the dyes were controlled spectrophotometrically. Molar extinction coefficient of dsDNA (ε, L⋅mol^−1⋅cm^−1) was taken to be 13,200 L mol^−1 cm^−1 (per base pair); for ssDNA, ε = 9045 L mol^−1 cm^−1 (per one base) was used. For MCD 1 and 2 in an aqueous buffer solution, we used extinction coefficients ε = 40,000 and 68,000 L mol^−1 cm^−1, respectively, which were taken from. For MCD 3 and 4, the molar extinction coefficients in ethanol solution were 69,200 and 49,000 L mol^−1 cm^−1 (taken from). […] Spectral fluorescent characteristics of MCD in complexes with biomacromolecules were studied by titration of dye solutions (see Supplementary Materials). The thermal dissociation (“melting”) of dsDNA in the presence of MCD was studied spectrophotometrically (λabs = 260 nm), the sample was heated (t° = 30–95 °C) using Peltier cells, and the temperature was controlled using a thermocouple. Melting points tm, corresponding to 50% hyperchromia of DNA samples were obtained.

dsDNA [2] = assay: Spectral fluorescent titration of the dyes with dsDNA in PBS; settings: for Ifl/Ifl0, relative increase in the fluorescence intensity: cdsDNA = 1 × 10^−4 mol L^−1; for φfl^b, fluorescence quantum yield of the dye in the presence of biopolymer: cdsDNA~5 × 10^−5 mol L^−1; for KeffHill, effective complexation constant (Hill) / KeffBH, effective complexation constant (Benesi–Hildebrand): PBS buffer; for KeffBH, effective complexation constant (Benesi–Hildebrand): fluorescent titration; for αb, proportion of bound dye: cbiomol = 5 × 10^−5 mol L^−1; for K2Sc, complexation constant (Scatchard): constant and nSc both varied; for Fmax/F0, fluorescence growth at 100% binding: from the Benesi–Hildebrand dependence; for K1Sc, complexation constant (Scatchard): nSc = const = 10 b.p.
Excerpt: (§2) Complexation of MCD 1–4 with DNA (double-stranded and single-stranded) and with human serum albumin (HSA) was studied by spectral fluorescent methods in a wide range of biopolymer concentrations (cdsDNA = 0–1.5 × 10^−4 mol L^−1; cssDNA = 0–1.4 × 10^−4 mol L^−1; cHSA = 0–1.4 × 10^−4 mol L^−1 in PBS buffer). The absorption, fluorescence, and fluorescence excitation spectra of MCD 1 and 3 in the presence of dsDNA are shown in Figure 3 and Figure 4, respectively.
(§3) The complication of chemical equilibrium, and the variety of interactions between MCD and biopolymer (dye aggregation/deaggregation, the possibility of forming complexes of several types with DNA/HSA) makes it problematic to determine the exact values of the complexation constants of the dyes with DNA. The values of the effective equilibrium constants of the complexation reaction of MCD with biopolymers (Keff, L mol^−1, see Table 7) were estimated from spectral fluorescent data. In this case, we had to assume a simple equilibrium MCD (monomer, free) ⇄ MCD (monomer, bound). For these purposes, we used the Benesi–Hildebrand [59], Hill, and Scatchard formalisms (See Supplementary Materials, Equations (S9)–(S13)). For dsDNA, fitting according to the modified Scatchard equation was carried out assuming one dye molecule per one DNA turn (K1Sc at nSc = const = 10 b.p.), as well as varying both the constant (K2Sc) and the stoichiometric coefficient (nSc). In the case of ssDNA, nSc is given per one base; for HSA, nSc = 1.
as §1
(§4) Absorption spectra were recorded on an SF-2000 spectrophotometer (Experimental-Construction Company “Spectrum”, St. Petersburg, Russia); fluorescence and fluorescence excitation spectra were recorded on a Fluorat-02-Panorama spectrofluorimeter (Group of Companies “Lumex”, St. Petersburg, Russia). The fluorescence and fluorescence excitation spectra were corrected for the spectral characteristics of the instrument (excitation channel signal) and sample transmission. Changes in the intrinsic fluorescence of HSA upon binding of MCD (in the presence of the dyes) were recorded in the synchronous fluorescence scanning (SFS) mode. In SFS mode, when registering spectra, a fixed difference Δλ= λfl − λex is maintained for the channels of excitation and registration. Synchronous scanning spectra were obtained at Δλ = 15 nm (fluorescence of tyrosine residues in the HSA molecule) and Δλ = 60 nm (fluorescence of tryptophan). The spectra were measured in 1 cm quartz semi-micro cells (Bio-Rad, Hercules, CA, USA).
(§5) The equilibrium constants of MCD complexation with biomolecules (Ka, L mol^−1) were obtained from fluorescence spectra using the Benesi–Hildebrand [59], Hill, and Scatchard equations [61] (see Supplementary Materials, Equations (S9)–(S13)). […]

ssDNA = assay: Spectral fluorescent titration of the dyes with ssDNA in PBS; settings: for φfl^b, fluorescence quantum yield of the dye in the presence of biopolymer: cssDNA~5 × 10^−5 mol L^−1; for decrease of the observed extinction coefficients: cssDNA~8 × 10^−5 mol L^−1; for LOD: detection of ssDNA; for LOQ: quantification of ssDNA; for K1Sc, complexation constant (Scatchard) / nHill, Hill coefficient / KeffHill, effective complexation constant (Hill) / KeffBH, effective complexation constant (Benesi–Hildebrand) / αb, proportion of bound dye / K2Sc, complexation constant (Scatchard) / Fmax/F0, fluorescence growth at 100% binding / nSc, stoichiometric coefficient (Scatchard): ssDNA; for KeffHill, effective complexation constant (Hill) / KeffBH, effective complexation constant (Benesi–Hildebrand): PBS buffer; for KeffBH, effective complexation constant (Benesi–Hildebrand): fluorescent titration; for αb, proportion of bound dye: cbiomol = 5 × 10^−5 mol L^−1; for K2Sc, complexation constant (Scatchard): constant and nSc both varied; for Fmax/F0, fluorescence growth at 100% binding: from the Benesi–Hildebrand dependence; for nSc, stoichiometric coefficient (Scatchard): per one base
Excerpt: as §2, §3, §1, §4, §5

[3] = cdsDNA = 1 × 10^−4 mol L^−1, compared to the initial spectra in PBS

Row | Compound | Tm(dsDNA), melting point of dsDNA in the presence of MCD (dsDNA [1]) | Ifl/Ifl0, relative increase in the fluorescence intensity (dsDNA [2]) | φfl^b, fluorescence quantum yield of the dye in the presence of biopolymer (dsDNA [2]) [%] | LOD (dsDNA [2]; detection of dsDNA) [nM] | nHill, Hill coefficient (dsDNA [2]; dsDNA) | nSc, stoichiometric coefficient (Scatchard) (dsDNA [2]; dsDNA) | KeffHill, effective complexation constant (Hill) (dsDNA [2]; dsDNA) [L/mol] | KeffBH, effective complexation constant (Benesi–Hildebrand) (dsDNA [2]; dsDNA) [L/mol] | αb, proportion of bound dye (dsDNA [2]; dsDNA) [%] | K2Sc, complexation constant (Scatchard) (dsDNA [2]; dsDNA) [L/mol] | Fmax/F0, fluorescence growth at 100% binding (dsDNA [2]; dsDNA) | K1Sc, complexation constant (Scatchard) (dsDNA [2]; dsDNA) [L/mol] | LOQ (dsDNA [2]; quantification of dsDNA) [nM] | φfl^b, fluorescence quantum yield of the dye in the presence of biopolymer (ssDNA) [%] | LOD (ssDNA) [nM] | LOQ (ssDNA) [nM] | K1Sc, complexation constant (Scatchard) (ssDNA) [L/mol] | nHill, Hill coefficient (ssDNA) | KeffHill, effective complexation constant (Hill) (ssDNA) [L/mol] | KeffBH, effective complexation constant (Benesi–Hildebrand) (ssDNA) [L/mol] | also measured
1 | CC[N+](CC)(CC)CCC[n+]1ccc(/C=C2\Sc3ccccc3N2C)c2ccc(O)cc21 [MCD 1] | 85–86 °C | about 425 times | 13 ± 1.5 | 7.2 | 1.04 | 2 | 53400 | 54000 | ~80 | 169000 | 460 | 793000 | 21 | 12 ± 1.5 | 40 | 120 | 228000 | 0.7 | 2830 | 24200 | LOD (dsDNA [2]; dsDNA): about 10^−8 mol L^−1; LOQ (dsDNA [2]; dsDNA): about 10^−8 mol L^−1; αb, proportion of bound dye (dsDNA [2]; dsDNA, listed as 1): 80%; hypochromia of the absorption band (dsDNA [2]; high concentrations of dsDNA): 8%; Ifl/Ifl0, relative increase in the fluorescence intensity (ssDNA; cssDNA = 5 × 10^−5 mol L^−1): ~ 40; decrease of the observed extinction coefficients (ssDNA): 40%; αb, proportion of bound dye (ssDNA): 60%; K2Sc, complexation constant (Scatchard) (ssDNA): 159000 L/mol; Fmax/F0, fluorescence growth at 100% binding (ssDNA): 60.9; nSc, stoichiometric coefficient (Scatchard) (ssDNA): 2
2 | CCN1/C(=C/c2sc3ccccc3[n+]2CC)Sc2ccccc21 [MCD 3] | 82 °C | 79 times | 4.8 ± 0.5 | 41 | 0.88 | 35 | 6900 | 13500 | 40 | 480000 | 136 | 135000 | 126 | 4.7 ± 0.5 | 87 | 260 | 112000 | 0.76 | 2940 | 11600 | growth of Tm(dsDNA) (dsDNA [1]): 2–3 °C; hypochromia of the absorption band (dsDNA [2]; [3]): 44%; αb, proportion of bound dye (ssDNA): 37%; K2Sc, complexation constant (Scatchard) (ssDNA): 430000 L/mol; Fmax/F0, fluorescence growth at 100% binding (ssDNA): 71; nSc, stoichiometric coefficient (Scatchard) (ssDNA): 37
3 | CCN1/C(=C/c2ccc3ccccc3[n+]2CC)C=Cc2ccccc21 [MCD 4] | 83 °C | 115 times | ~1.5 ± 0.2 | 94 | 0.62 | 2 | 1850 | 19500 | 46 | 37000 | 169 | 186000 | 210 | ~1.4 ± 0.2 | 760 | 2300 | 65000 | 0.57 | 350 | 6800 | growth of Tm(dsDNA) (dsDNA [1]): 2–3 °C; hypochromia of the absorption band (dsDNA [2]; [3]): 36%; decrease of the observed extinction coefficients (ssDNA): 54%; αb, proportion of bound dye (ssDNA): 25%; K2Sc, complexation constant (Scatchard) (ssDNA): 19500 L/mol; Fmax/F0, fluorescence growth at 100% binding (ssDNA): 61; nSc, stoichiometric coefficient (Scatchard) (ssDNA): 3
